US20200237864A1, “METHODS AND COMPOSITIONS FOR TREATING FIBROTIC INTERSTITIAL LUNG DISEASE” (INSERM (INSTITUT NATIONAL DE LA SANTÉ ET DE LA RECHERCHE …, priority 2017, published 2020)

What was measured:
[1] = tested on: bleomycin-induced lung fibrosis; type: in vivo, C57BL6-J mice
Procedure: Male, 8-week old C57BL6-J mice (Janvier, Le Genest-St-Ile, France) were treated with an orotracheal instillation of either 120 μg bleomycin (Laboratoires Bellon, France) or saline, under isoflurane anesthesia. In a first set of experiments, mice were treated from the 7th to the 14th day following instillation with daily subcutaneous injections of either 5 mg/kg of the Arp2/3 inhibitor CK666 (Tocris Biochemicals, Bristol, UK) in 100 μl of 40% Dimethylsulfoxide in saline (vehicle) (M. Park et al. 2013), or vehicle alone. Mice were monitored and weighted daily and their diet was supplemented with gel-based food (Dietgel Recovery gels, ClearH2O, Westbrook, Me., USA). On the 14th day following bleomycin, mice were anesthetized with 300 mg/kg Ketamine and 30 mg/kg xylazine, and euthanized by exsanguination. Bronchoalveolar lavage was performed with 2×1 ml saline. Lung were either snap-frozen in liquid nitrogen or inflation-fixed in 4% formaldehyde. Inhibition of the Arp2/3 complex in vivo. The study protocol was approved by the regional ethics board (APAFIS#5669-20 16061413402331).
Total insoluble collagen was quantified in left lung homogenates (Sircol Insoluble collagen Assay, Biocolor, Carrickfergus, UK). Soluble procollagen-1 was quantified in homogenates of the right upper lung lobe by ELISA (DY6220, R&D Systems). RNAs were extracted from the right middle lung lobe (Allprep, Qiagen) and reverse-transcribed (First Strand cDNA Synthesis Kit, Thermofisher). Transcripts associated with fibrogenesis were quantified by RTPCR (Sybr select Master Mix, Thermofisher) and expressed relative to Gapdh as an endogenous control. The activity of enzymes key to collagen polymerization and degradation was measured in lysates of right lower lobe using fluorimetric assays specific for lysil oxidase (Amplite™ Fluorimetric Lysyl Oxidase Assay, AAT Bioquest, Sunnyvale, Calif., USA) and collagenase (fluorimetric DQ collagen type 1, Sigma Aldrich, St Quentin-Fallavier, France). Clostridium histolyticum collagenase (Sigma-Aldrich) was used as a positive control for collagenase assays. Total BALF proteins were measured with the BCA protein assay (Thermofisher). BALF cells were counted using a hemocytometer. For histological analysis, 5-μm sections of paraffin-embedded lung were stained with Masson's trichrome stain.

[2] = tested on: Primary human normal lung fibroblasts (CCD-16Lu cells); experiment: Lung fibroblast cell growth assay; type: cell-based; conditions: CK666 100 μM vs DMSO, Day 4
Procedure: (§1) Primary human normal lung fibroblasts (CCD-16Lu cells, American Type Culture Collection, Manassas, Va., USA) were grown in DMEM-Glutamax medium supplemented with 10% fetal bovine serum and penicillin/streptomycin (Thermofisher, Villebon-sur-Yvette, France), at 37° C. with 5% CO2. Experiments were performed between passages 7 and 12, when cells reached 70% confluency. Fibroblasts were treated either with 100 μM CK666 (Tocris, Lille, France) or 1/1000 dimethylsulfoxide (DMSO, Sigma,St Quentin Fallavier, France) as a control. In a second set of experiments, fibroblasts were transfected with 4 nM of either short interfering RNAs targeting ARPC2 (siARPC2, Silencer Select, Thermofisher) or control RNAs (siControl), using the Lipofectamine RNAimax reagent (Thermofisher). For cell growth assays, 50 000 cells/well were plated in 12-well plates, grown for 4 days, detached with 5% trypsin and counted using Kova Glasstic counting slides (Thermofisher). […] Cell proteins were recovered in 100 μl lysis buffer (50 mM Tris HCl pH7.4, 150 mM NaCl, 0.1% SDS, 0.5% sodium deoxycholate, 1% Triton X-100) with 1% protease inhibitor (P8340, Sigma) and quantitated by the BiCinchoninic acid Assay (Pierce, Thermofisher); mRNA was extracted using the GeneJET RNA Purification Kit (Thermofisher).

COL1 = experiment: Spontaneous and TGFB1-induced COL1 expression in lung fibroblasts (RTPCR, ELISA); type: cell-based, human; conditions: CK666 100 μM
Procedure: (§2) Primary human normal lung fibroblasts (CCD-16Lu cells, American Type Culture Collection, Manassas, Va., USA) were grown in DMEM-Glutamax medium supplemented with 10% fetal bovine serum and penicillin/streptomycin (Thermofisher, Villebon-sur-Yvette, France), at 37° C. with 5% CO2. Experiments were performed between passages 7 and 12, when cells reached 70% confluency. Fibroblasts were treated either with 100 μM CK666 (Tocris, Lille, France) or 1/1000 dimethylsulfoxide (DMSO, Sigma,St Quentin Fallavier, France) as a control. In a second set of experiments, fibroblasts were transfected with 4 nM of either short interfering RNAs targeting ARPC2 (siARPC2, Silencer Select, Thermofisher) or control RNAs (siControl), using the Lipofectamine RNAimax reagent (Thermofisher). For cell growth assays, 50 000 cells/well were plated in 12-well plates, grown for 4 days, detached with 5% trypsin and counted using Kova Glasstic counting slides (Thermofisher). For differentiation assays, cells were plated in 12-well plates, grown to 70% confluency, treated for 24 h with siControl or siARPC2 when appropriate, starved of serum for 24 h, and treated with either CK666 or DMSO 30 minutes before treatment with either 5 ng/ml recombinant human TGFB1 (R&D Systems, Lille, France) of control solvent for 48h. Cell proteins were recovered in 100 μl lysis buffer (50 mM Tris HCl pH7.4, 150 mM NaCl, 0.1% SDS, 0.5% sodium deoxycholate, 1% Triton X-100) with 1% protease inhibitor (P8340, Sigma) and quantitated by the BiCinchoninic acid Assay (Pierce, Thermofisher); mRNA was extracted using the GeneJET RNA Purification Kit (Thermofisher).
Procollagen-1 (COL1) and Glyćeraldéhyde-3-phosphate déshydrogenase (GAPDH) were quantified by ELISA (DY6220 and DYC5718, R&D Systems). COL1 was expressed relative to GAPDH as an endogenous control.
(§3) RNAs were reverse-transcribed using the First Strand cDNA Synthesis Kit (Thermofisher). Transcripts were quantified by RTPCR (Sybr select Master Mix, Thermofisher) and expressed relative to UBC (human samples) or Gapdh (mouse samples) as an endogenous control using the 2^−ΔCt method.

ACTA2 = experiment: Spontaneous and TGFB1-induced ACTA2 expression in lung fibroblasts (RTPCR, cell-based ELISA); set-up: species or system human
Procedure: as §2
For cell-based ELISA, cells were grown in 12-well plates, fixed with 4% paraformaldehyde for 15 min, permeabilized with 0.5% Triton X-100 in PBS, blocked with 1% bovine albumin, incubated overnight at 4° C. with an ACTA2 primary antibody (A2547, dilution 1/1000, Sigma), and sequentially incubated with an anti-mouse biotinylated antibody (Vector, dilution 1/400), streptavidin-horseradish peroxidase (R&D Systems), and Tetramethylbenzidine substrate (Sigma). The reaction was stopped with […] and absorbance readings were taken at 450 nm with 570 nm as a reference wavelength. […]
as §3

[3] = tested on: G/F actin ratio in lung fibroblasts (CCD-16Lu cells); experiment: Determination of G- and F-actin levels in lung fibroblasts; type: cell-based, human
Procedure: as §1, with “In a second set of experiments, fibroblasts were transfected with 4 nM of either short interfering RNAs targeting ARPC2 (siARPC2, Silencer Select, Thermofisher) or control RNAs (siControl), using the Lipofectamine RNAimax reagent (Thermofisher).” left out
500 000 cells were seeded in 75 cm2 flasks and treated with either CK666 or DMSO for 24 h. […] Supernatant (G-actin) and pellet (F-actin) samples were analyzed by immunoblotting on polyvinylidene fluoride membranes using a beta-actin primary antibody (Sigma).

[4] = bleomycin-instilled mice, CK666 vs vehicle
[5] = lung lysates, bleomycin-instilled mice, CK666 vs vehicle
[6] = mouse lungs, CK666 5 mg/kg daily day 7-14, RTPCR

bleomycin-induced increase in lung lysyl oxidase activity [1, 5]: not modified
lung collagenase activity [1, 5]: no effect
Structure (SMILES): Cc1[nH]c2ccccc2c1CCNC(=O)c1ccccc1F [CK666]
reduction of lung content in procollagen-1 ([1]; bleomycin-instilled mice, CK666 5 mg/kg daily day 7-14 vs vehicle, ELISA): 55%
bleomycin-induced increase in BALF total protein [1, 4]: reduced neither
bleomycin-induced weight loss [1, 4]: reduced neither
lung levels of LOX mRNA [1, 4]: did not reduced
lung levels of LOXL2 mRNA [1, 4]: did not reduced
lung levels of TG2 mRNA [1, 4]: did not reduced
bleomycin-induced increase in lung Collal mRNA ([1]; bleomycin-instilled mice, CK666 vs vehicle, RTPCR relative to Gapdh): did not reduce
reduction of lung insoluble collagen ([1]; bleomycin-instilled mice, left lung, CK666 5 mg/kg daily day 7-14 vs vehicle, Sircol assay): 20%
lung expression of Arp2 mRNA [1, 6]: increased expression
lung expression of ArpCla mRNA [1, 6]: increased expression
lung expression of Arpc3 mRNA [1, 6]: increased expression
lung histology ([1]; mouse, in vivo): did not result in modifications of lung histology
reduction of cell growth (fold-increase in cell number relative to seeding) [2]: 36%
reduction of the TGFB1-driven increase in COL1 protein (COL1; TGFB1 5 ng/ml, ELISA, trend, p=0.13): 30%
TGFB1-driven increase in COL1A1 mRNA (COL1; TGFB1 5 ng/ml, RTPCR): did not modulate
TGFB1-driven increase in COL1A2 mRNA (COL1; TGFB1 5 ng/ml, RTPCR): did not modulate
reduction of COL1/GAPDH protein ratio (COL1; unstimulated cells, ELISA): 54%
expression of COL1A1 mRNA (COL1; unstimulated cells, RTPCR): did not modulate
expression of COL1A2 mRNA (COL1; unstimulated cells, RTPCR): did not modulate
TGFB1-driven increase in ACTA2 mRNA (ACTA2; TGFB1 5 ng/ml 48 h, RTPCR): partially
TGFB1-driven increase in ACTA2 protein (ACTA2; TGFB1 5 ng/ml 48 h, cell-based ELISA): totally
expression of ACTA2 mRNA (ACTA2; unstimulated lung fibroblasts, CK666 100 μM, RTPCR): did not modulate
expression of ACTA2 protein (ACTA2; unstimulated lung fibroblasts, CK666 100 μM, cell-based ELISA): did not modulate
TGFB1-induced increase in the G/F actin ratio ([3]; TGFB1 5 ng/ml, CK666 100 μM or 4 nM siARPC2): inhibited
G/F actin ratio ([3]; unstimulated lung fibroblasts, CK666 100 μM vs DMSO or 4 nM siARPC2 vs siControl): increased
